In patent US8637523B2, “Compounds for the reduction of beta-amyloid production” (Bristol-Myers Squibb Company, priority 2010, dated 2014):
Several values for one entry are separate records, joined by “and”; a condition that tells them apart may be missing. Equal entries are not always repeated. Where two headings read alike, the source gives them in different places.

Experiments:
[1] = from CC(C)(C)OC(=O)N(CCOc1cc(N)ccc1C#N)CCc1nc(Cl)nc2c1CCC2c1ccc(F)cc1; cn_pd bond; 13-membered ring; Pd(OAc)2/Xantphos/Cs2CO3; 1,4-dioxane; 6.0 mM; 110.0 °C
[2] = tested on: Aβ42; assay: Cellular assay for inhibition of Aβ1-42 production (H4 APP751 SWE clone 8.20); format: cell-based; conditions: H4 APP751 SWE clone 8.20 cells, 19 h incubation
How it was run: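 19 h cell treatment, 37 °C/5% CO2. Detection of secreted Aβ42 in the cell plate: 565 (Aβ42-specific, Wallac) and 26D6 (N-terminal, APC), overnight 4 °C. IC50 from fitted curves.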

CC(C)(C)OC(=O)N1CCOc2cc(ccc2C#N)Nc2nc(c3c(n2)C(c2ccc(F)cc2)CC3)CC1 (stereo not shown)
ring closure, isolated yield [1]: 21.4%

Clc1cn(-c2ccc3cc2OC/C=C/CCNc2nc(nc4c2CCC4c2ccccc2)N3)cn1 (stereo not shown)
ring closure, yield after HPLC (rcm bond, 14-membered ring, Hoveyda-Grubbs II, 1,2-dichloroethane, 0.975 mM, 100.0 °C): 27.7%

Clc1cn(-c2ccc3cc2OCCCNC2=NC(=N3)NC3=C2CCC3c2ccccc2)cn1 (stereo not shown)
ring closure, yield after HPLC (cn_pd bond, 12-membered ring, Pd(dba)3 (so in the source)/Xantphos/Cs2CO3, 1,4-dioxane, 30.7 mM, 110.0 °C): 2.83% and 1.88%

Cc1ncn(-c2ccc3cc2OCC(O)CCNc2nc(nc4c2CCC4c2ccc(F)cc2)N3)n1 (mixture of isomers)
ring closure, yield after HPLC (from Cc1ncn(-c2ccc(N)cc2OCC(O)CCNc2nc(Cl)nc3c2CCC3c2ccc(F)cc2)n1, cn_pd bond, 13-membered ring, Pd(OAc)2/Xantphos/Cs2CO3, dioxane, 100.0 mM, 100.0 °C): 24.4%

CN1Cc2c(nc3nc2N(C)CC=CCOc2cc(ccc2C#N)N3)C(c2ccc(F)cc2)C1 (racemic)
ring closure, yield after HPLC (from C=CCOc1cc(Nc2nc3c(c(N(C)CC=C)n2)CN(C)CC3c2ccc(F)cc2)ccc1C#N, rcm bond, 13-membered ring, Hoveyda-Grubbs II, 1,2-dichloroethane, 3.0 mM, 90.0 °C): 4.95%

(11Z)-18-(2,4-difluorophenyl)-7-(5-methyl-1H-1,2,4-triazol-1-yl)-10,13,14,16,17,18-hexahydro-15,2-(azeno)-8,4-(metheno)cyclopenta[h][1,6,10,12]oxatriazacycloheptadecine [Example 53A]
IC50 ([2]; read-out: Activity Rating (Aβ42 cellular IC50), class symbol): < 10 nM

(11Z)-18-(2,4-difluorophenyl)-7-(5-methyl-1H-1,2,4-triazol-1-yl)-10,13,14,16,17,18-hexahydro-15,2-(azeno)-8,4-(metheno)cyclopenta[h][1,6,10,12]oxatriazacycloheptadecine [Example 53B]
IC50 ([2]; unit inferred, read-out: Activity Rating (Aβ42 cellular IC50), numeric value): 17 nM
